# Laboratory results taken from patent publication EP1658846B1, “N-(8,8,8-trifluorooctyl)-1,5-dideoxy-1,5-imino-D-glucitol for treating hepatitis virus infections” (priority 1999, dated 2000).
# Like-named read-outs stand apart in the source and are kept apart here.
# Columns and labels:
# Hepatitis B Virus = assay: HBV secretion from chronically HBV secreting HepG2.2.15 cells (preS1 immunoprecipitation of virions, PCR); assay type: cell-based; conditions: for Relative amount of HBV secreted as a % of Control: 3 days, control = 100
# Procedure: (§1) The anti-hepatitis B virus activity and effect on cell viability of a number of different N-substituted-1,5-dideoxy-1,5-imino-D-glucitol compounds were assessed using an in vitro assay employing chronically hepatitis B virus secreting HepG2.2.15 cells. The method employed was essentially that described in Block et al. (1994) Proc. Natl. Acad. Sci. USA 91:2235-2239.
# HepG2.2.15 cells = assay: Cell viability by trypan blue exclusion; assay type: cell-based; conditions: 3 days, cells excluding trypan blue
# [1] = system: HepG 2.2.15 (2.2.15) cells; assay: IC-90 values used for the combostat dilutions (unpublished observation / literature); assay type: cell-based; conditions: Hepatitis B virus, HepG2.2.15, T. Block and G. Jacob
# Procedure: The anti-hepatitis B virus effect of […] (3TC) alone and in combination with N-nonyl-DNJ was determined according to Korba ((1996) Antiviral Research 29(1):49-51), using the "combostat" strategy (Comstat Program, Combostat Corp., Duluth, MN). The combostat method involves serially diluting the IC-90 of each compound. The IC-90 of N-nonyl-DNJ has been determined to be between 4 and 10 µg/ml (T. Block and G. Jacob, unpublished observation). The accepted IC-90 for 3TC in HepG 2.2.15 (2.2.15) cells is 300nM to 500nM (Doong et al. (1991) Proc. Natl. Acad. Sci. USA 88:8495-8499).
# HBV DNA = assay: Cell culture experiments with N-nonyl-DNJ: total HBV DNA and immune precipitated DNA; assay type: cell-based
# Description: (§2) There are two measures of drug efficacy: reduction in total HBV DNA (measured by quantitative PCR), and reduction in HBV DNA from capsids with intact surface glycoproteins, which is the active form of the virus (measured by an ELISA-like immune precipitation assay followed by quantitative PCR).
# [2] = system: woodchuck hepatitis virus (WHV); assay: Monotherapy in woodchuck model, BID oral dosing for 4 weeks; assay type: in vivo
# Procedure: Therefore, five groups of four animals each (all groups had both sexes, all but the control had two of each sex) were assigned to 0, 12.5, 25, 50, and 100 mg/kg/day with BID oral dosing. These were lab-reared wild animals. All animals were infected with woodchuck hepatitis virus (WHV) as neonates, and had been tested positive on serological tests for WHV surface antigen. Blood samples were drawn one week prior to dosing (-1 week), immediately before dosing (0 weeks), weekly during dosing (1, 2, 3, and 4 weeks), and after the end of dosing (5, 6, 8, and 10 weeks).
# as §2
# Before models are fitted to the data, a log transform was applied because: 1) the variation in IPDNA increases with increasing IPDNA values; the log transformation gives values with a nearly constant variation, and 2) it is expected that drug effects will appear as a constant multiplier of the IPDNA level. Because there are zero values of IPDNA, a small value (about 1/2 of the smallest non-zero value) was added to all values before the log transform.
# Two approaches were used to model the changes in slope to week with dose of N-nonyl-DNJ: a linear modeling approach and a nonlinear model. Both approaches assume that the (linear) rate of change of the Log(IPDNA) measure over the dosing period is the "right" measure to reflect the effect of the drug on the virus. Both approaches are fit in stages, and the first stage is common to both approaches. First, a simple straight line regression model is fit using weeks 0-4 to predict log(IPDNA_+_10) separately for each animal by run combination. In the second stage, the response variable is the slope fitted in the first stage.
# For the linear approach, a model is fit with slope to week as the response where run is considered a block, dose has a significant effect (almost all of this effect is due to a slope to dose), and the relevant error for testing the effect of dose is the variation among animals treated alike (after the adjustment for the runs as blocks). This is similar to using the calibration data within each run to first adjust each run's data to a common virus DNA concentration; the difference is that here the data from the woodchucks are used for the run adjustment rather than only the calibration data.
# For the nonlinear approach, a four parameter logistic model is fit with the slope to week as the response and the dose as the predictor. […]
# [3] = Cell viability by trypan blue exclusion; assay type: cell-based; conditions: human, hepg2.2.15 cells, 3 days, cells excluding trypan blue, read-out: % Viable +/-1 S.D.
# [4] = MTT-based colorimetric cell viability assay; conditions: human, hepg2.2.15 cells; read-out: [] for a 50% reduction in MMT
# Procedure: as §1
# • 1: N-(n-nonyl)-1,5-dideoxy-1,5-imino-D-glucitol • 2: N-(n-butyl)-1,5-dideoxy-1,5-imino-D-glucitol, diacetate • 3: 1,5-dideoxy-1,5-imino-D-glucitol, tetracetate • 4: N,O-(1,6-carbonyl)-1,5-dideoxy-1,5-imino-D-glucitol • 5: N-(n-butyl)-2,3-dimethoxy-1,5-dideoxy-1,5-imino-D-glucitol • 6: N-(n-hexyl)-4,6-benzylidine-1,5-dideoxy-1,5-imino-D-glucitol • 7: N-(n-butyl)-3-methoxy-1,5-dideoxy-1,5-imino-D-glucitol • 8: N-(4,4,4-triflourobutyl)-2,3-dimethoxy-1,5-dideoxy-1,5-imino-D-glucitol, tetracetate • 9: N,O-(1,6-methylenecarbonyl)-1,5-dideoxy-1,5-irriino-D-glucitol • 10: N-(8,8,8-triflourooctyl)-1,5-dideoxy-1,5-imino-D-glucitol MMT: 3-(4,5-dimethylthiazol-2-yl)-2,5-diphenyltetrazolium bromide. The MTT-based colorimetric assay is a measurement of cell viability (Heo et al. (1990) Cancer Research 50:3681-3690).
# [5] = concentration [200] (unit not given)
# [6] = concentration [1000] (unit not given)
molecule,measurement,setting,value
"1,5-(butylimino)-1,5-dideoxy-D-glucitol, tetraacetate [Example 2]",Relative amount of HBV secreted as a % of Control,Hepatitis B Virus; [5],107.0 +/-12 (n=3) %
same,Relative amount of HBV secreted as a % of Control,Hepatitis B Virus; [6],38.0 +/-15 (n=3) %
same,[ ] for 90% HBV secretion inhibition,"Hepatitis B Virus; duplicate PCR results, * lowest concentration tested, ** no inhibition at the highest concentration used (200 microgs/ml)",>200*s* microgs per ml
same,% Viable +/-1 S.D.,HepG2.2.15 cells; [5],90 +/-6 (n=4) %
same,% Viable +/-1 S.D.,HepG2.2.15 cells; [6],89 +/-4 (n=4) %
"CCCCCCCCCN1C[C@H](O)[C@@H](O)[C@H](O)[C@H]1CO [Compound 1 (Table 3), N-(n-nonyl)-1,5-dideoxy-1,5-imino-D-glucitol]",IC90,[1],4 to 10 µg/mL
same,effect on immune precipitated DNA (IPDNA),HBV DNA,marked effect
same,effect on total HBV DNA,HBV DNA,little or no effect
same,decrease of IPDNA at the minimum slope,[2]; corresponds to the average minimum slope,about 25 %/week
same,average minimum slope observed,"[2]; printed as 'fewer' (a decrease), weeks 0-4",0.31 Log(IPDNA g/mL)/week
same,effect on total HBV DNA measurements,"[2]; quantitative PCR, all dose levels, pre-dose and dosed portions of the study",no effect
same,IPDNA levels over the dosing period,"[2]; weeks 0-4, immune precipitation followed by quantitative PCR",high dose animals tended to have decreasing levels of IPDNA
"CCCCN1C[C@H](O)[C@@H](O)[C@H](O)[C@H]1CO [NBDNJ, N-(n-butyl-)-1,5-dideoxy-1,5-imino-D-glucitol]",IC90,"Hepatitis B Virus; Hepatitis B virus, HepG2.2.15, duplicate PCR results, * lowest concentration tested, ** no inhibition at the highest concentration used (200 microgs/ml), read-out: [ ] for 90% HBV secretion inhibition",0.5 to 1 µg/mL
same,Relative amount of HBV secreted as a % of Control,Hepatitis B Virus; [5],37.0 +/-13 (n=15) %
same,Relative amount of HBV secreted as a % of Control,Hepatitis B Virus; [6],3.2 +/-5 (n=15) %
same,viability at 72 h,[3]; concentration [200] (unit inferred),94 ± 6%
same,viability at 72 h,[3]; concentration [1000] (unit inferred),87 ± 3%
same,% Viable +/-1 S.D.,"HepG2.2.15 cells; concentration [200] (unit not given), listed as 1, 4320 min",90 +/-2 (n=4) %
same,CC50,[4],100 to 200 µg/mL
